Data taken from article PMC8355150, “Bioactive recombinant human oncostatin M for NMR-based screening in drug discovery” (Scientific Reports, 2021).

Target: T1, Oncostatin M (OSM, rhOSM) (Homo sapiens, UniProt P13725)
T1 construct: residues 1–187
T1 sequence (P13725 26-212): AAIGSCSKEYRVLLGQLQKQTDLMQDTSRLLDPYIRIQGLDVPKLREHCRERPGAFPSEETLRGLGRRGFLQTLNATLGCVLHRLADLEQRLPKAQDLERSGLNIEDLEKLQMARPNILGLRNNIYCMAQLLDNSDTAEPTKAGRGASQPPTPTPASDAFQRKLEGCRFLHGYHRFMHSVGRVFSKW
Experiment: 1H, […] HSQC NMR titration (chemical shift perturbation); fluorescence quenching (Kd […])
Format: binding

Compound: O=C(O)/C=C/c1cc(-c2ccc3c(c2)OCO3)c(-c2ccc3c(c2)OCO3)o1 [OSM-SMI-10B]
- Kd: 12.2 ± 3.9 µM
